Experimental data as given in patent publication US20230203041A1, “ANTAGONISTS OF THE ADENOSINE A2A RECEPTOR” (AdoRx Therapeutics Limited, priority 2020, published 2023).

Experiments:
[1] = molecular target: T1, human Adenosine A2b receptor (Homo sapiens, UniProt P29275); test: Adenosine receptor TR-FRET binding assay (CA200645 displacement), A2b; conditions: 30 nM CA200645, CHO cell membranes, 2 hours at room temperature
T1 construct: expressed in transfected cells; host or cells: CHO cell membranes
T1 sequence (P29275 1-332): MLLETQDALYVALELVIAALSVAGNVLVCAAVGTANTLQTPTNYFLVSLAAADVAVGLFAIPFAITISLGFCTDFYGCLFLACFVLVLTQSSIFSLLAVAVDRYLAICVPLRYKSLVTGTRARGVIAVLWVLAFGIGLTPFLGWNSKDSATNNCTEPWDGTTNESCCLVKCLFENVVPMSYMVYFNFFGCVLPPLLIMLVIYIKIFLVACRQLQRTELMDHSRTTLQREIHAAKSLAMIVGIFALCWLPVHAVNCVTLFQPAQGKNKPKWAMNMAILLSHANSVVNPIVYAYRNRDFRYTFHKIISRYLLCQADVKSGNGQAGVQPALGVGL

[2] = system: human PBMCs; test: CD3/CD28 stimulated IL-2 release NECA reversal assay in human PBMCs; format: cell-based; conditions: PBMC, CD3/CD28 antibody stimulated, 1 uM NECA, 24 hours, IL-2 in culture supernatant;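 note: dose-response as % inhibition where 100% equals no-NECA control wells with CD3/CD28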
Experimental: Blood is drawn from healthy volunteers using sodium citrate as the anticoagulant (0.3% final concentration). After centrifugation of the blood over Histopaque-1077, PBMCs are collected from the Histopaque/plasma interface and washed twice in PBS (300 g for 10 mins at room temp). Cells are plated at 50,000 cells/well in 150 μl RPMI/10% FCS in 96-well cell culture plates that have been precoated with 1 ug/ml CD3 antibody. 50 μl diluted compound mix is added to the cells, to obtain final concentrations of 1 ug/ml CD28 antibody, 1 uM NECA and 0.003-10 μM adenosine receptor antagonist. Assay plates are incubated for 24 hours at 37° C. in a humidified incubator. Culture supernatant is tested for IL-2 levels using the human IL-2 Tissue Culture Kit (Meso Scale Discovery).

[3] = molecular target: T2, human Adenosine A3 receptor (Homo sapiens, UniProt P0DMS8); test: Adenosine receptor TR-FRET binding assay (CA200645 displacement), A3
T2 sequence (P0DMS8 1-318): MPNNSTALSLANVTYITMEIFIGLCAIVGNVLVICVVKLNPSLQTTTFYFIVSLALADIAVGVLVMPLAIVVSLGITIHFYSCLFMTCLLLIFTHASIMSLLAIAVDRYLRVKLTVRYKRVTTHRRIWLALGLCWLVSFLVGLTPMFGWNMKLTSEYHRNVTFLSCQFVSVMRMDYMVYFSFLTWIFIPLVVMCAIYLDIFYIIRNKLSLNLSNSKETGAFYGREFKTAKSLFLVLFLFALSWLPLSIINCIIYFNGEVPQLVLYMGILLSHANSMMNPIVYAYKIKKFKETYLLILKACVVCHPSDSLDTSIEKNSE

[4] = molecular target: T3, human Adenosine A2a receptor (Homo sapiens, UniProt P29274); test: Adenosine receptor TR-FRET binding assay (CA200645 displacement), A2a; conditions: 100 nM CA200645, CHO cell membranes, 2 hours at room temperature
T3 construct: expressed in transfected cells; host or cells: CHO cell membranes
T3 sequence (P29274 whole entry): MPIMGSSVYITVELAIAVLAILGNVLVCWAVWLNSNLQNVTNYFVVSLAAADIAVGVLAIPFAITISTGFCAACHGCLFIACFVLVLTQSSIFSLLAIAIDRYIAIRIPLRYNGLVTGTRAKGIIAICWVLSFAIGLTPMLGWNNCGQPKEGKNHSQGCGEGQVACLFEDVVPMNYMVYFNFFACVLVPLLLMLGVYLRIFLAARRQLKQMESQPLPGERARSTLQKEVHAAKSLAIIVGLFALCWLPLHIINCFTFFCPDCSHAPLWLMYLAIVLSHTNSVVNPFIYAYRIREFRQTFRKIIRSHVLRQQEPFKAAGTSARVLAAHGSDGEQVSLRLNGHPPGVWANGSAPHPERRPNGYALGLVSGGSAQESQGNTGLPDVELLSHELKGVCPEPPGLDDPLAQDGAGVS

[5] = molecular target: T4, human Adenosine A1 receptor (Homo sapiens, UniProt P30542); test: Adenosine receptor TR-FRET binding assay (CA200645 displacement), A1
T4 sequence (P30542 1-326): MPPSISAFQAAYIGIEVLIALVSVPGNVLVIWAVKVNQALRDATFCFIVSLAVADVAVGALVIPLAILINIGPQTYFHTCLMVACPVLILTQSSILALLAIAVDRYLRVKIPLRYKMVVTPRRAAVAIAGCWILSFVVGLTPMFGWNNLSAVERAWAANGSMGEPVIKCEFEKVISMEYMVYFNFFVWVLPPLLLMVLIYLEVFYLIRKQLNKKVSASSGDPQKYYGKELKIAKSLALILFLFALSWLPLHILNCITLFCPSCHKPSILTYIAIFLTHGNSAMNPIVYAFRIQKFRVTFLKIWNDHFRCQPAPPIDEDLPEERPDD

| SMILES | Ki [1] | Ki [3] | Ki [4] | Ki [5] | IC50 [2] |
| --- | --- | --- | --- | --- | --- |
| CC(C)(C)OC(=O)N1CCO[C@@H](CNc2ccn3nc(-c4ccco4)c(C#N)c3n2)C1 [Example 37.1] | 46 nM | 2090 nM | 13.3 nM | 45 nM | 477 nM |
| Brc1c(-c2ccco2)nn2ccc(NCc3ccccc3)nc12 [Example 44, N-Benzyl-3-bromo-2-(2-furyl)pyrazolo[1,5-a]pyrimidin-5-amine] | 2850 nM | 25 nM | 3.4 nM | 141 nM | 501 nM |
| N#Cc1c(-c2ccco2)nn2ccc(NCc3ccccc3)nc12 [Example 45, 5-(Benzylamino)-2-(2-furyl)pyrazolo[1,5-a]pyrimidine-3-carbonitrile] | 74 nM |  | 0.5 nM | 6 nM | 107 nM |
| O=Cc1c(-c2ccco2)nn2ccc(NCc3ccccc3)nc12 [Example 47, 5-(Benzylamino)-2-(2-furyl)pyrazolo[1,5-a]pyrimidine-3-carbaldehyde] | 483 nM | 510 nM | 5.2 nM | 174 nM | 140 nM |
| Cc1cc(-c2c(-c3cccc(C#N)c3)nn3ccc(C(=O)NC4COC4)nc23)cc(Cl)n1 [Example 5.5] | 55 nM | > 1000 nM | 1.7 nM | 200 nM | 21 nM |
| NC(=O)c1c(-c2ccco2)nn2ccc(NCc3ccccc3)nc12 [Example 46, 5-(Benzylamino)-2-(2-furyl)pyrazolo[1,5-a]pyrimidine-3-carboxamide] | 257 nM | 1270 nM | 2.7 nM | 146 nM | 60 nM |
| Cc1cc(-c2c(-c3cccc(C#N)c3)nn3ccc(N4CCNCC4)nc23)cc(Cl)n1 [Example 2.29] | 21 nM | > 1000 nM | 11.8 nM | 124 nM |  |
| Cc1cc(-c2c(-c3cccc(C#N)c3)nn3ccc(N[C@H]4CCNC4)nc23)cc(Cl)n1 [Example 4.6] | 4 nM | > 1000 nM | 5.1 nM | 230 nM |  |
| N#Cc1c(-c2ccccc2F)nn2ccc(NCc3ccccc3)nc12 [Example 35, 5-(Benzylamino)-2-(2-fluorophenyl)pyrazolo[1,5-a]pyrimidine-3-carbonitrile] | 122 nM |  | 4.5 nM | 4 nM | 408 nM |
| Cc1cc(-c2c(-c3cccc(C#N)c3)nn3ccc(C(N)=O)nc23)cc(C)n1 [Example 5.8, 2-(3-Cyanophenyl)-3-(2,6-dimethyl-4-pyridyl)pyrazolo[1,5-a]pyrimidine-5-carboxamide] | 41 nM | > 1000 nM | 5.7 nM | 418 nM |  |
| Cc1cc(-c2c(-c3cccc(C#N)c3)nn3ccc(N(C)C)nc23)cc(Cl)n1 [Example 23.4] | 90 nM | 1980 nM | 10.2 nM | 163 nM |  |
| CCn1nccc1-c1c(-c2cccc(C#N)c2)nn2ccc(N)nc12 [Example 1.3] | 16 nM | > 1000 nM | 74.8 nM | 197 nM |  |
| Cc1cc(-c2c(-c3cccc(C#N)c3)nn3ccc(NCC4CNC(=O)C4)nc23)cc(Cl)n1 (stereo not drawn) [Example 2.14] | 8 nM | > 1000 nM | 1.5 nM | 29 nM |  |
| N#Cc1c(-c2ccco2)nn2ccc(N3CCN(Cc4ccccc4)CC3)nc12 [Example 43, 5-(4-Benzylpiperazin-1-yl)-2-(2-furyl)pyrazolo[1,5-a]pyrimidine-3-carbonitrile] | 1860 nM | > 1000 nM | 16.4 nM | 278 nM |  |

Continued, in another order:

| Ki [1] | Ki [3] | Ki [4] | Ki [5] | SMILES | IC50 [2] |
| --- | --- | --- | --- | --- | --- |
|  | > 1000 nM | 23.6 nM | 2280 nM | N#Cc1cccc(-c2nn3ccc(N4CCN(CCF)CC4)nc3c2C#N)c1 [Example 87, 2-(3-Cyanophenyl)-5-[4-(2-fluoroethyl)piperazin-1-yl]pyrazolo[1,5-a]pyrimidine-3-carbonitrile] | 57 nM |
| 1170 nM | 41 nM | 16.6 nM | 137 nM | c1ccc(CNc2ccn3nc(-c4ccco4)cc3n2)cc1 [Example 48, N-Benzyl-2-(2-furyl)pyrazolo[1,5-a]pyrimidin-5-amine] | 1890 nM |
| 116 nM | 92 nM | 30.9 nM | 0.3 nM | N#Cc1c(-c2cccc(F)c2)nn2ccc(N)nc12 [Example 72, 5-Amino-2-(3-fluorophenyl)pyrazolo[1,5-a]pyrimidine-3-carbonitrile] | 565 nM |
|  | > 1000 nM | 2 nM | 83 nM | N#Cc1cccc(-c2nn3ccc(NCc4ccccc4)nc3c2C#N)c1 [Example 58, 5-(Benzylamino)-2-(3-cyanophenyl)pyrazolo[1,5-a]pyrimidine-3-carbonitrile] | 118 nM |
|  | 618 nM | 27.7 nM | 214 nM | Cn1cc(-c2c(-c3ccco3)nn3ccc(NCc4ccccc4)nc23)cn1 [Example 53, N-benzyl-2-(2-furyl)-3-(1-methylpyrazol-4-yl)pyrazolo[1,5-a]pyrimidin-5-amine] | 128 nM |
| 1420 nM | > 1000 nM | 26.5 nM | 322 nM | N#Cc1c(-c2ccco2)nn2ccc(N3CCN(Cc4c(F)cc(F)cc4F)CC3)nc12 [Example 51.1, 2-(2-Furyl)-5-[4-[(2,4,6-trifluorophenyl)methyl]piperazin-1-yl]pyrazolo [1,5-a]pyrimidine-3-carbonitrile] | 16 nM |
| 508 nM | 41 nM | 7.5 nM | 16 nM | Cc1ccc(-c2nn3ccc(NCc4ccccc4)nc3c2C#N)o1 [Example 64, 5-(benzylamino)-2-(5-methyl-2-furyl)pyrazolo[1,5-a]pyrimidine-3-carbonitrile] | 146 nM |
| 14 nM | > 1000 nM | 0.6 nM | 70 nM | Cc1cc(-c2c(-c3cccc(C#N)c3)nn3ccc(C(=O)N[C@H]4COC[C@H]4O)nc23)cc(C)n1 [Example 92.8] |  |
| 181 nM |  | 2.2 nM | 2 nM | N#Cc1c(-c2cccc(F)c2)nn2ccc(NCc3ccccc3)nc12 [Example 70, 5-(Benzylamino)-2-(3-fluorophenyl)pyrazolo[1,5-a]pyrimidine-3-carbonitrile] | 177 nM |
| 37 nM | > 1000 nM | 1.2 nM | 301 nM | Cc1cc(-c2c(-c3cccc(C#N)c3)nn3ccc(C(=O)N[C@H]4C[C@](C)(O)C4)nc23)cc(C)n1 [Example 92.20] |  |
| 28 nM | > 1000 nM | 1.1 nM | 246 nM | Cc1cc(-c2c(-c3cccc(C#N)c3)nn3ccc(C(=O)NCC4(C)NC(=O)NC4=O)nc23)cc(C)n1 (stereo not drawn) [Example 92.17] |  |
| 38 nM | > 1000 nM | 4.3 nM | 1240 nM | Cc1cc(-c2c(-c3cccc(C#N)c3)nn3ccc(C(=O)NCC(C)(C)O)nc23)c(F)c(C)n1 [Example 101.1, 2-(3-Cyanophenyl)-3-(3-fluoro-2,6-dimethyl-4-pyridyl)-N-(2-hydroxy-2-methyl-propyl)pyrazolo[1,5-a]pyrimidine-5-carboxamide] |  |
| 1700 nM | 4180 nM | 244 nM | 284 nM | N#Cc1c(-c2ccco2)nn2ccc(NCCO)nc12 [Example 55.2, 2-(2-furyl)-5-(2-hydroxyethylamino)pyrazolo[1,5-a]pyrimidine-3-carbonitrile] |  |
